The text below walks through data of article PMC9962735, “Synthesis and Cytotoxic Activity of the Derivatives of N-(Purin-6-yl)aminopolymethylene Carboxylic Acids and Related Compounds” (Molecules, 2023).

Data set [1] in a line: MTT cytotoxicity assay, Jurkat. Format: cell-based, human. The note with it: human, read-out: SCI (selective cytotoxicity index). The text has this: (§1) The cytotoxicity of the test compounds was studied using the MTT assay against a number of cell lines: CT-26 murine colon carcinoma, 4T1 murine mammary carcinoma, MDA-MB-231 human breast adenocarcinoma, COLO201 human colorectal adenocarcinoma, HepG2 human hepatocellular carcinoma, A549 human non-small-cell lung carcinoma, SK-BR-3 human breast adenocarcinoma, SNU-1 human gastric carcinoma, Jurkat human acute T-lymphoblastic leukemia, and WI-38 human lung fibroblasts (normal cells). Doxorubicin (Dox) was used as a reference drug. Cells were incubated with test compounds for 72 h.
(§2) Cells were seeded in flat-bottomed 96-well plates at 10,000 cells per well (for A549, SNU-1, WI-38, CT-26, MDA-MB-231, 4T1, and HepG2 cells) or 20,000 cells per well (for SK-BR-3, Jurkat, and COLO201 cells) and cultivated in complete culture mediums (for composition of each medium, see the Supplementary Materials, Table S1) in a CO2 incubator at 37 °C. At the first stage of this study, the test compounds dissolved in DMSO were added to the wells with cells at final concentrations from 1 × 10^–4 to 1 × 10^–10 mol/L (A549, SK-BR-3, SNU-1, Jurkat, and WI-38) or 1 × 10^–3 to 1 × 10^–8 mol/L (CT-26, MDA-MB-231, 4T1, COLO201, and HepG2); DMSO concentration in the wells was finally 1%. A complete cultural medium and DMSO were added to the control wells at the same concentration as in the experimental wells; 0.1% Triton X-100 solution (10 µL) was added to the corresponding wells as a non-specific positive control. After adding the test compounds, the cells were incubated for 72 h in an atmosphere containing 5% CO2. After that, the nutrient medium was removed from each well (in the case of SK-BR-3, Jurkat, and COLO201, plates were pre-centrifuged at 1500 rpm for 6 min). A solution of the commercial anticancer agent Doxorubicin (Dox, Sigma-Aldrich, St. Louis, MO, USA) in DMSO was used as a reference drug. Then, 150 µL of a complete medium with the MTT reagent (PanEco, Moscow, Russia) at a concentration of 0.5 mg/mL was added and incubated for 2 h. Formazan crystals were dissolved in DMSO (200 µL) and the absorbance in the wells was measured at 540 nm and a reference wavelength of 650 nm (Sunrise, Tecan, Groding, Austria). Experiments were performed in three parallel runs. Cell viability after incubation in the presence of test compounds was calculated in relation to cell viability in the control wells according to the Formula (1):Cell viability (%) = (Aexp/Ac) × 100,(1) where Aexp is the optical density of solutions in the wells containing test compounds; Ac is the optical density of solutions in control wells without test compounds. For detailed information on cell viability of various cell lines, see the Supplementary Materials, Figures S21–S26.
(§3) At the second stage of this study, in order to more accurately calculate the CC50 (the half maximal inhibitory concentration), the cytotoxic effect of test compounds was evaluated at concentrations close to CC50 found at the first stage. The study of the cytotoxic activity of each substance towards the cells of each line was carried out in triplicate; the mean value was used to calculate CC50. The CC50 values were determined by non-linear regression analysis using Graph-Pad Prism7.
A general note: Tetrazolium dyes change colour on reduction, which living cells bring about.

The test system of data set [2] is Jurkat human acute T-lymphoblastic leukemia. Put plainly: MTT cytotoxicity assay, Jurkat. Format: cell-based. The note with it: Homo sapiens, Jurkat; for CC50: 72 h, 72 h incubation, MTT.
Source text: as §1, §2, §3

Data set [3] deals with CT-26 murine colon carcinoma. Put plainly: MTT cytotoxicity assay, CT-26. The note with it: Mus musculus, CT26; for CC50: CT-26, 72 h incubation, MTT, n = 3. It is filed as cell-based.
Source text: as §1, §2, §3

Data set [4] can be described thus: MTT cytotoxicity assay, CT-26. Format: cell-based, murine. The note with it: mouse (CT-26) and human (WI-38); CC50 of WI-38 divided by CC50 of CT-26; read-out: SCI (selective cytotoxicity index).
Source text: as §1, §2, §3

Data set [5] can be described thus: MTT cytotoxicity assay, WI-38 normal cells. It is filed as cell-based. As to conditions: human, WI-38 lung fibroblasts (normal cells); for CC50 at 72 h: WI-38, 72 h incubation, MTT.
Source text: as §1, §2, §3

The subject of data set [6] is COLO201 human colorectal adenocarcinoma. In words: MTT cytotoxicity assay, COLO201. Format: cell-based. The note with it: Homo sapiens, COLO 201; for CC50: COLO201, 72 h incubation, MTT, n = 3.
Source text: as §1, §2, §3

Data set [7] in a line: MTT cytotoxicity assay, COLO201. It is filed as cell-based, human. The note with it: human; CC50 of WI-38 divided by CC50 of COLO201; read-out: SCI (selective cytotoxicity index).
Source text: as §1, §2, §3

Data set [8] is described as follows: MTT cytotoxicity assay, MDA-MB-231. It is filed as cell-based, human. The note with it: human; CC50 of WI-38 divided by CC50 of MDA-MB-231; read-out: SCI (selective cytotoxicity index).
Source text: as §1, §2, §3

Data set [9] relates to MDA-MB-231 human breast adenocarcinoma. In words: MTT cytotoxicity assay, MDA-MB-231. It is filed as cell-based. As to conditions: Homo sapiens; for CC50: MDA-MB-231, 72 h incubation, MTT, n = 3.
Source text: as §1, §2, §3

Data set [10] can be described thus: MTT cytotoxicity assay, A549. Format: cell-based, human. The note with it: human, read-out: SCI (selective cytotoxicity index).
Source text: as §1, §2, §3

In data set [11] the test system is A549 human non-small-cell lung carcinoma. In words: MTT cytotoxicity assay, A549. It is filed as cell-based. The note with it: Homo sapiens; for CC50: A549, 72 h, A549, 72 h incubation, MTT.
Source text: as §1, §2, §3

Data set [12] concerns SK-BR-3 human breast adenocarcinoma. In words: MTT cytotoxicity assay, SK-BR-3. Format: cell-based. The note with it: Homo sapiens; for CC50: SK-BR-3, 72 h, SK-BR-3, 72 h incubation, MTT.
Source text: as §1, §2, §3

The nature of data set [13]: MTT cytotoxicity assay, SK-BR-3. It is filed as cell-based, human. The note with it: human, read-out: SCI (selective cytotoxicity index).
Source text: as §1, §2, §3

Data set [14] can be described thus: MTT cytotoxicity assay, HepG2. The note with it: human; CC50 of WI-38 divided by CC50 of HepG2; read-out: SCI (selective cytotoxicity index). It is filed as cell-based, human.
Source text: as §1, §2, §3

The subject of data set [15] is HepG2 human hepatocellular carcinoma. Put plainly: MTT cytotoxicity assay, HepG2. It is filed as cell-based. The note with it: Homo sapiens; for CC50: HepG2, 72 h incubation, MTT, n = 3.
Source text: as §1, §2, §3

The nature of data set [16]: MTT cytotoxicity assay, 4T1. It is filed as cell-based, murine. As to conditions: mouse (4T1) and human (WI-38); CC50 of WI-38 divided by CC50 of 4T1; read-out: SCI (selective cytotoxicity index).
Source text: as §1, §2, §3

Data set [17] concerns 4T1 murine mammary carcinoma. In words: MTT cytotoxicity assay, 4T1. It is filed as cell-based. The note with it: Mus musculus; for CC50: 4T1, 72 h incubation, MTT, n = 3.
Source text: as §1, §2, §3

Data set [18] has as its system SNU-1 human gastric carcinoma. Put plainly: MTT cytotoxicity assay, SNU-1. Format: cell-based. The note with it: Homo sapiens; for CC50: SNU1, 72 h, SNU-1, 72 h incubation, MTT.
Source text: as §1, §2, §3

A short description of data set [19]: MTT cytotoxicity assay, SNU-1. The note with it: human, read-out: SCI (selective cytotoxicity index). It is filed as cell-based, human.
Source text: as §1, §2, §3

Data set [20] in a line: Solubility in aqueous media. Format: physicochemical. The note with it: result in words.
Data set [21] deals with A549, SK-BR-3, SNU-1, Jurkat, WI-38 cell lines. In words: MTT cytotoxicity assay, cell line panel (result in words). It is filed as cell-based, human. As to conditions: 72 h.
Source text: as §1
The cytotoxicity of compounds 2a–c, 6, 7, and 9 was also studied using the MTT assay against a number of tumor cell lines: A549, SK-BR-3, SNU-1, Jurkat, as well as normal fibroblasts WI-38 (Table 3).
as §2, §3

The mark [22] stands for this setting: CC50 of WI-38 divided by CC50 of Jurkat (Table 1).
Setting [23] is: CC50 of WI-38 divided by CC50 of A549 (Table 1).
Where [24] appears, read: CC50 of WI-38 divided by CC50 of SK-BR-3 (Table 1).
Setting [25] is: CC50 of WI-38 divided by CC50 of SNU-1 (Table 1).

With `CC1COc2c(ccc(F)c2F)N1C(=O)CCCCCCCCCCCCCCNc1ncnc2[nH]cnc12` (centres unmarked) [Compound 1f], the selectivity ratio at 72 h turned out to be 1.1 in [1] (setting [22]); 12 in data set [4]; 27 in data set [7]; 1.4 in data set [8]; 0.58 in data set [10] (setting [23]); 0.35 in data set [13] (setting [24]). In addition, the selectivity ratio at 72 h in [14] worked out at 3.6; in [16] it was 15; in data set [19] (setting [25]), 5.8. Moreover, the CC50 in data set [2] (n = 3 (Table 1)) came out at 32 µM; in data set [3] it was 3 µM; in data set [6] it was 1.3 µM; in data set [9] it was 28 µM; in data set [11] (n = 3 (Table 1)) it was 60 µM; in data set [12] (n = 3 (Table 1)), 99 µM. In addition, the CC50 in [15] is 9.7 µM; in data set [17], 2.3 µM; in [18] (n = 3 (Table 1)), 6 µM. The CC50 at 72 h in data set [5] (n = 3) came to 35 µM.
Regarding `CC1COc2c(ccc(F)c2F)N1C(=O)CCCCCCCCCCNc1ncnc2c1ncn2COCCO` (centres unmarked) [Compound 7, 4-{11-[9-(2-Hydroxyethoxy)methylpurin-6-yl]aminoundecanoyl}-7,8-difluoro-3,4-dihydro-3-methyl-2H-[1,4]benzoxazine], the selectivity ratio at 72 h in data set [1] (CC50 of WI-38 divided by CC50 of Jurkat (Table 3)) was found to be 1.9; in data set [10] (CC50 of WI-38 divided by CC50 of A549 (Table 3)), 1.5; in data set [13] (CC50 of WI-38 divided by CC50 of SK-BR-3 (Table 3)), 0.33; in data set [19] (CC50 of WI-38 divided by CC50 of SNU-1 (Table 3)), 3.8. In addition, the CC50 turned out to be 7.3 µM in data set [2] (n = 3 (Table 3)), 9.4 µM in [11] (n = 3 (Table 3)), 42 µM in [12] (n = 3 (Table 3)) and 3.7 µM in data set [18] (n = 3 (Table 3)). It took 14 µM to reach half-maximal cytotoxicity in data set [5] (n = 3 (Table 3)) (CC50 at 72 h). Besides, in data set [20], the “solubility in aqueous media” value was “not possible to achieve a significant increase in the solubility”. Further, the “cytotoxic activity (in words)” value in data set [21] is recorded as “approximately the same cytotoxicity as the most active compound 1d”.
For the compound `CC1COc2c(ccc(F)c2F)N1C(=O)CCCCCCCCCCCNc1ncnc2[nH]cnc12` (centres unmarked) [Compound 1e], the selectivity ratio at 72 h was 18 in data set [1] (setting [22]); 21 in data set [4]; 20 in data set [7]; 5.9 in [8]; 0.95 in [10] (setting [23]); 0.83 in data set [13] (setting [24]). In addition, the selectivity ratio at 72 h in data set [14] was determined as 14; in data set [16], 145; in data set [19] (setting [25]) it was 12. Moreover, the CC50 in data set [2] (n = 3 (Table 1)) worked out at 4 µM; in data set [3] it was 3.4 µM; in [6], 3.5 µM; in [9] it was 12 µM; in [11] (n = 3 (Table 1)) it was 75 µM; in data set [12] (n = 3 (Table 1)) it was 85 µM. The CC50 in [15] is 5.2 µM; in data set [17] it was 0.49 µM; in [18] (n = 3 (Table 1)), 6 µM. In addition, the viability at 100 µM in [2] (1 × 10^–4 M, mean ± SD (n = 3), read-out: Cell viability) worked out at 10 ± 4%; in [3] (CT-26, 1 × 10^–4 M, mean ± SD (n = 3), read-out: Cell viability), 3 ± 2%; in [6] (COLO201, 1 × 10^–4 M, mean ± SD (n = 3), read-out: Cell viability), 2 ± 1%; in data set [9] (MDA-MB-231, 1 × 10^–4 M, mean ± SD (n = 3), read-out: Cell viability), 7 ± 5%; in data set [11] (A549, 1 × 10^–4 M, mean ± SD (n = 3)), 6%; in [12] (SK-BR-3, 1 × 10^–4 M, mean ± SD (n = 3), read-out: Cell viability) it was 9 ± 2%. In addition, the viability at 100 µM is 2 ± 1% in data set [15] (HepG2, 1 × 10^–4 M, mean ± SD (n = 3), read-out: Cell viability); 2 ± 2% in data set [17] (4T1, 1 × 10^–4 M, mean ± SD (n = 3), read-out: Cell viability); 5 ± 1% in [18] (SNU1, SNU-1, 1 × 10^–4 M, mean ± SD (n = 3), read-out: Cell viability). In data set [5] (n = 3), this compound displayed a CC50 at 72 h of 71 µM. Further, the viability at 72 h in data set [5] (WI-38, 1 × 10^–4 M, mean ± SD (n = 3), read-out: Cell viability) was 22 ± 7%.

The term CC50 denotes the concentration that lowers cell viability or growth by half. Higher therefore signals lower toxicity to the cells. As a reminder, the viability is a per cent measure of how many cells are alive, often set against a control.
